The test system of data set [1] is NCI/ADR-RES (P-gp over-expressing resistant line of OVCAR-8). The experiment in a line: Cytotoxicity (SRB) assay, NCI/ADR-RES. The format is cell-based, human.
For data set [2], the system named is melanoma and prostate cancer cell lines. Nature of the data set: Antiproliferative activity summarised over the cell line panel (range or average). As to conditions: read-out: IC50 (range over tested cell lines). The format is cell-based.
For data set [3], the system named is PC-3 human prostate cancer cell line. Nature of the data set: cells. Conditions: Homo sapiens. An excerpt: (§1) Cells were stained with SRB solution.
A further data set relates to Bovine brain tubulin. Nature of the data set: In vitro tubulin polymerization assay (bovine brain tubulin). The format is biochemical. As to conditions: 10 μM, absorbance 340 nm over 15 min. As to the method: The spectrophotometer was maintained at 37° C. for tubulin polymerization.
Another data set deals with PC-3 xenograft. Nature of the data set: In vivo PC-3 prostate tumor xenograft. As to conditions: for tumor volume at day 21: control 680 mm^3.
A short description of data set [4]: Pharmacokinetic study in ICR mice. As to conditions: mice, 15 mg/kg i.v.
For data set [5] the following is noted: ICR mice, 4 consecutive days of intraperitoneal dosing.
Data set [6] has as its system A375 human melanoma xenograft. The experiment in a line: In vivo A375 human melanoma xenograft. On the technique in general: In xenograft studies the graft and the host belong to different species.
Another data set has as its system MES-SA/DX5 cells. The experiment in a line: Growth inhibition (SRB) assay, MES-SA/Dx5. The format is cell-based. Conditions: ratio of IC50 MES-SA/DX5 to MES-SA.
Another data set concerns HEK293-pcDNA3.1 cells. Nature of the data set: Cytotoxicity assay, HEK293-pcDNA3.1 (parental line of the MRP/BCRP sublines). It counts as cell-based. Conditions: Table 14B; parental cell line; read-out: IC50 ± SEM, HEK293-pcDNA3.1.
Data set [7] relates to A375MA2 melanoma cell line. The experiment in a line: Cytotoxicity assay, A375MA2. The format is cell-based. As to conditions: Table 14B, n = 3; read-out: IC50 ± SEM, A375MA2.
Another data set relates to WM-164 melanoma cells. Nature of the data set: Microtubule imaging (immunofluorescence). The format is cell-based, human. Conditions: WM-164 cells, 18 h. An excerpt:
Primary antibody for tubulin and fluorescence-labeled secondary antibody were subsequently added to the cells. Cell nuclei were stained by DAPI. Whole Cell Stain Green was also applied to all cells. All images were acquired with an Olympus IX71 inverted fluorescence microscope (Olympus Corp., Tokyo, Japan) with overlays from separate images of tubulin (red), nuclei (blue), and whole cells (green).

The test system of data set [8] is OVCAR-8 human ovarian cell line. The experiment in a line: Cytotoxicity (SRB) assay, OVCAR-8. It counts as cell-based. As to conditions: Table 14B, parental cell line, read-out: IC50 ± SEM, OVCAR-8.
A further data set relates to B16-F1 melanoma tumors. The experiment in a line: In vivo B16-F1 melanoma allograft. On the set-up: species or system mouse. As to the method: Female C57/BL mice, age 4-6 weeks, were purchased from Harlan Laboratories (Harlan Laboratories Inc., Indianapolis, Ind.). The animal housing met the Association for Assessment and Accreditation and Laboratory Animal Care specifications. All of the procedures were conducted in accordance with guidelines of our Institutional Animal Care and Use Committee.
Tumor volume was expressed in cubic millimeters.

For data set [9], the system named is MDA-MB-435/LCCMDR1 multidrug-resistant melanoma cells. Nature of the data set: Cytotoxicity (SRB) assay, MDA-MB-435/LCCMDR1. It counts as cell-based. Conditions: for P-gp substrate / multidrug resistance in words: MDR melanoma line vs sensitive parent line; for IC50: Homo sapiens.
Another data set deals with DU-145/TXR cells. Nature of the data set: Growth inhibition, DU-145/TXR. As to conditions: Homo sapiens. The format is cell-based.
Data set [10] concerns A375 human melanoma cell line. The experiment in a line: Cytotoxicity (SRB) assay, A375. The format is cell-based. Conditions: Homo sapiens, A-375, Table 14D; read-out: IC50 ± SEM, A375 (converted).
Data set [11] relates to DU 145 human prostate cancer cell line. The experiment in a line: Cytotoxicity (SRB) assay, DU 145. The format is cell-based. Conditions: Homo sapiens.
Excerpt: as §1

Data set [12] has as its system PPC-1 human prostate cancer cell line. Nature of the data set: Cytotoxicity (SRB) assay, PPC-1. It counts as cell-based. Conditions: Homo sapiens.
Excerpt: as §1

Data set [13] relates to MDA-MB-435 parental nonresistant melanoma cells. The experiment in a line: Cytotoxicity (SRB) assay, MDA-MB-435. It counts as cell-based. Conditions: Homo sapiens, Table 14D, read-out: IC50 ± SEM, MDA-MB-435 (converted).
Data set [14] concerns LNCaP human prostate cancer cell line. The experiment in a line: Cytotoxicity (SRB) assay, LNCaP. Conditions: Homo sapiens, LNCaP, Table 13A; read-out: inhibitory effects, LNCaP. It counts as cell-based.
Excerpt: as §1

Data set [15] has as its system PC-3_TxR paclitaxel-resistant prostate cancer cells (P-gp over-expressing). Nature of the data set: cells. Conditions: Homo sapiens, PC3-TxR.
Data set [16] relates to confluent HUVEC monolayers. Nature of the data set: Endothelial monolayer permeability assay. As to conditions: FITC-dextran leakage, 1, 2, 4 h.
The next data set concerns PC-3_TxR xenograft. The experiment in a line: In vivo PC-3/TxR xenograft. As to conditions: for tumor growth inhibition (TGI): PC-3/TxR tumors.
[17] abbreviates: read-out: IC50 PC-3, SRB assay, prostate cancer PC-3.
[18] abbreviates: Melanoma (A375) xenograft, 15 mg/kg i.p.
The mark [19] stands for this setting: Table 14D, read-out: IC50 ± SEM, MDA-MB-435/LCC-6MDR1 (converted).
[20] abbreviates: DU-145, Table 13A, read-out: inhibitory effects, DU-145/TXR.
Where [21] appears, read: DU-145, Table 13A, read-out: inhibitory effects, DU145.
Where [22] appears, read: PPC-1, Table 13A, read-out: inhibitory effects, PPC1.
Where [23] appears, read: read-out: inhibitory effects, PC3, Table 13A.
The mark [24] stands for this setting: read-out: inhibitory effects, PC3/TXR.

Like-named read-outs stand apart in the source and are kept apart here.

Consider `COc1cc(C(=NC#N)c2csc(-c3ccccc3)n2)cc(OC)c1OC` [2j, N-((2-phenylthiazol-4-yl)(3,4,5-trimethoxyphenyl)methylene)cyanamide], for which, in data set [1] (NCI/ADR-RES relative to OVCAR-8), the Resistance factor came to 0.4. For the same compound, the IC50 in data set [2] is 0.02 to 0.06 µM; in [3] (setting [17]), 0.027 ± 0.001 µM.

With `COc1cc(C(=O)c2csc(-c3ccc(F)cc3)n2)cc(OC)c1OC` [2k], the “inhibition of tubulin polymerization” value in the data set on Bovine brain tubulin was found to be 90%. For the same compound, the “% T/C” value with PC-3 xenograft (PC-3, 5 mg/kg i.p.) was determined as 21%; in the data set on PC-3 xenograft (PC-3, 15 mg/kg i.p.), 24%; in data set [6] (setting [18]) it was 28%. For the same compound, the “tumor volume at day 21” value is 269 mm^3 in the data set with PC-3 xenograft (PC-3, 5 mg/kg i.p. daily) and 292 mm^3 with PC-3 xenograft (PC-3, 15 mg/kg i.p. daily). Moreover, the “mice that lost more than 15% body weight” value in the data set on PC-3 xenograft (PC-3 xenograft, 15 mg/kg i.p.) is 2 out of 7. The AUC (as a rule, concentration integrated over time) in [4] was found to be 2200 ng·h/mL. In addition, the “dose not causing greater than 10% loss of body weight” value in data set [5] is reported as no more than 15 mg/kg. The same compound gave a T-C in [6] (setting [18]) of 11 days.

For `Fc1ccc(-c2nccc3ccc(-c4ccc5[nH]ccc5c4)cc23)cc1` [6c, 1-(4-Fluoro-phenyl)-7-(H-indol-5-yl)-isoquinoline], the Resistance factor in the data set with MES-SA/DX5 cells was 1.7.

As to `COc1ccc(-c2nc(C(=O)c3ccc(F)cc3)c[nH]2)cc1` [12cb, (4-fluorophenyl)(2-(4-methoxyphenyl)-1H-imidazol-4-yl)methanone], the IC50 in the data set with HEK293-pcDNA3.1 cells was 0.012 ± 0.002 µM; in [7], 0.044 ± 0.005 µM; in [8] it was 0.025 ± 0.002 µM. The “effect on microtubules in words” value with WM-164 melanoma cells is “microtubule fragmentation”.

For the compound `O=C(c1ccc(F)cc1)c1c[nH]c(-c2ccc(Cl)cc2)n1` [12fb, (2-(4-chlorophenyl)-1H-imidazol-4-yl)(4-fluorophenyl)methanone], the “tumor growth inhibition (TGI value)” value in the data set with B16-F1 melanoma tumors (C57BL/6 mice, 15 mg/kg, 13 days) is recorded as 32%; in the data set on B16-F1 melanoma tumors (C57BL/6 mice, 45 mg/kg, 13 days), 82%. Further, the IC50 in data set [1] (Homo sapiens, NCI/ADR-RES, Table 14B, MDR1 overexpressed, read-out: IC50 ± SEM, NCI/ADR-RES) is 0.02 ± 0.006 µM; with HEK293-pcDNA3.1 cells, 0.054 µM; in data set [7], 0.055 ± 0.004 µM; in [8] it was 0.045 ± 0.002 µM. Besides, the “P-gp substrate / multidrug resistance in words” value in data set [9] was “not substrates for P-gp”. In addition, the well tolerated dose in [6] (SHO mice, 31 days) came out at 25 mg/kg.

Consider `CCc1ccc(-c2nc(C(=O)c3cc(OC)c(OC)c(OC)c3)c[nH]2)cc1` [12q, (2-(4-ethylphenyl)-1H-imidazol-4-yl)(3,4,5-trimethoxyphenyl)methanone], for which the IC50 with DU-145/TXR cells (Table 12, in parentheses in the Du 145 column, read-out: IC50, DU-145/TXR) is 0.02 µM; in data set [9] (setting [19]), 0.027 ± 0.003 µM; in [10], 0.0014 µM; in data set [11] (DU-145, Table 12, read-out: IC50 ± SEM, Du 145), 0.025 µM; in data set [12] (PPC-1, Table 12, read-out: IC50 ± SEM, PPC-1 (converted)), 0.015 µM; in data set [13] it was 0.107 ± 0.005 µM. In data set [3] (read-out: IC50 ± SEM, PC-3, Table 12), the IC50 stood at 0.013 µM.

In the case of `COc1cc(C(=O)c2nc(-c3ccccc3)c[nH]2)cc(OC)c1OC` [70a, (4-Phenyl-1H-imidazol-2-yl)(3,4,5-trimethoxyphenyl)methanone and (5-phenyl-1H-imidazol-2-yl)(3,4,5-trimethoxyphenyl)methanone], the IC50 with DU-145/TXR cells (setting [20]) was 0.0229 µM; in data set [9] (setting [19]) it was 0.043 µM; in [14], 0.006 µM; in data set [11] (setting [21]) it was 0.0215 µM; in data set [12] (setting [22]), 0.013 µM; in data set [13], 0.079 µM. In addition, the IC50 in data set [3] (setting [23]) came out at 0.014 µM.

Turning to `COc1cc(C(=O)c2nc(-c3ccccc3)cn2C)cc(OC)c1OC` [70m, (1-Methyl-4-phenyl-1H-imidazol-2-yl)(3,4,5-trimethoxyphenyl)methanone], the IC50 was 0.027 µM in the data set with DU-145/TXR cells (setting [20]); 0.026 µM in data set [11] (setting [21]); 0.013 µM in [12] (setting [22]); 0.016 µM in [3] (setting [23]); 0.0075 µM in data set [15] (setting [24]).

For the compound `CCn1cc(-c2ccccc2)nc1C(=O)c1cc(OC)c(OC)c(OC)c1` [70n, (1-Ethyl-4-phenyl-1H-imidazol-2-yl)(3,4,5-trimethoxyphenyl)methanone], the IC50 in the data set with DU-145/TXR cells (setting [20]) is 0.066 µM; in data set [14], 0.029 µM; in data set [11] (setting [21]), 0.066 µM; in [3] (setting [23]), 0.025 µM; in data set [15] (setting [24]), 0.02 µM.

In the case of `COc1ccc(S(=O)(=O)Nc2cccnc2Nc2ccc(O)cc2)cc1` [ABT-751, reference compound], the IC50 came to 0.577 ± 0.031 µM in data set [9] (Table 14B, MDR1 overexpressed, read-out: IC50 ± SEM, MDA-MB-435/LCC6MDR1) and 0.645 ± 0.153 µM with HEK293-pcDNA3.1 cells. Also, the “P-gp substrate / multidrug resistance in words” value in [9] was “not susceptible to MDR1, MRP, or BCRP”. Moreover, the “effect on microtubules in words” value in the data set with WM-164 melanoma cells was “microtubule fragmentation”.

Turning to `COc1ccc(/C=C\c2cc(OC)c(OC)c(OC)c2)cc1O` [CA4, Combretastatin A-4], in data set [16], the “permeability of endothelial cell monolayer in words” value was “increased permeability”.

`CN(C)/N=N/c1[nH]cnc1C(N)=O` [DTIC, 5-(3,3,-dimethyl-1-triazenyl)-imidazole-4-carboxamide, reference compound]: the tumor volume reduction with B16-F1 melanoma tumors (C57/BL mice, 60 mg/kg i.p. daily, 14 days) is 51%. In the data set on B16-F1 melanoma tumors (C57BL/6 mice, 60 mg/kg, 13 days), the “tumor growth inhibition (TGI)” value is on record as 51%.

Consider `CC(=O)O[C@@]12CO[C@@H]1C[C@H](O)[C@@]1(C)C(=O)[C@H](O)C3=C(C)[C@@H](OC(=O)[C@H](O)[C@@H](NC(=O)OC(C)(C)C)c4ccccc4)C[C@@](O)([C@@H](OC(=O)c4ccccc4)[C@H]21)C3(C)C` [docetaxel, reference compound], for which the “tumor growth inhibition (TGI)” value stood at 14% in the data set with PC-3_TxR xenograft (i.v. 10 mg/kg on day 1 and 9); 56% in the data set on PC-3_TxR xenograft (i.v. 20 mg/kg on day 1 and 9). In the data set on PC-3_TxR xenograft (PC-3/TxR xenograft, IV 10 mpk, day 1 and 9, day 19, […]), the “Tumor size End” value is 1774 ± 183 mm^2. In addition, the IC50 in data set [3] (read-out: IC50, PC-3, Table 7) was 0.0063 ± 0.0004 µM; in data set [3] (setting [17]) it was 0.0012 ± 0.0001 µM; in data set [15] (read-out: IC50 PC-3/TxR), 0.0177 ± 0.0007 µM.

The values are drawn from US11465987B2, “Compounds for treatment of cancer” (ONCTERNAL THERAPEUTICS, INC., priority 2012, dated 2022).
